Reference: BindingDB's records for patent WO2022070071 (JANSSEN BIOTECH, INC., 2022)
One block for each compound: values may come before it.

Biological target: Dihydroorotate dehydrogenase (quinone), mitochondrial (Homo sapiens, UniProt Q02127)
Assay: DHODH enzymatic assay
Protocol: To detect DHODH enzyme activities, dichloroindophenol (DCIP) is added as the final electron acceptor in the assay. DCIP can accept electrons from the reduced coenzyme Q generated in the assay, or from dihydroorotate (DHO) via FMN by binding presumably to the ubiquinone pocket. […] The assay buffer contained […], pH 7.5, 150 mM NaCl, 0.5 mM EDTA, and 0.1% Triton X-100 in MilliQ water. Substrate consisting of 20 mM DHO, 5mM CoQ6, and 1mM DCIP in assay buffer, initiates the reaction. […] Absorbance measurements were obtained using the BMG Phera Star plate-reading spectrophotomer. Purified human DHODH was purchased from Proteros (cat. No. PR-0044). Chemicals were purchased from Sigma-Aldrich, Teknova, and Avanti Polar Lipids. Liquid handling was performed using Labcyte Echo and Formulatrix Tempest.

Dihydroorotate dehydrogenase (quinone), mitochondrial, sequence (Q02127 whole entry): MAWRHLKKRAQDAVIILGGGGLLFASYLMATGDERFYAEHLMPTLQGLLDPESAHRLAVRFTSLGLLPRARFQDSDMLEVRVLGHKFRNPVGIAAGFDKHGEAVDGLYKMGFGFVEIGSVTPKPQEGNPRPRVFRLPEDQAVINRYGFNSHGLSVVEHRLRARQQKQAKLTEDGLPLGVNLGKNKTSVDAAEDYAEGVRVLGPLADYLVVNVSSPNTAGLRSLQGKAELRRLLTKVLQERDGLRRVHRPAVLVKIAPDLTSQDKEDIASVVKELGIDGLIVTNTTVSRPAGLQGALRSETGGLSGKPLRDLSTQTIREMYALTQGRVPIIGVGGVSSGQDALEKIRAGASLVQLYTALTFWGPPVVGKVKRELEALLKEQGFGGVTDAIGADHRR

SMILES: Cc1ccccc1-c1cc(C(C)C)c2cc(-c3cn(C)c(C(C)(C)O)n3)c(F)cn2c1=O [WO2022070071, Example 1]
IC50: 2.11 nM

SMILES: Cc1n[nH]c(Cl)c1-c1cc(C(C)C)c2cc(-c3cn(C)c(C(C)(C)O)n3)c(F)cn2c1=O [WO2022070071, Example 4]
IC50: 2.69 nM

SMILES: Cc1n[nH]c(Cl)c1-c1cc(C(C)C)c2cc(-c3nc(C(C)(C)O)n(C)n3)c(F)cn2c1=O [WO2022070071, Example 5]
IC50: 2.1 nM

SMILES: Cc1n[nH]c(C(F)(F)F)c1-c1cc(C(C)C)c2cc(-c3cn(C)c(C(C)(C)O)n3)c(F)cn2c1=O [WO2022070071, Example 6]
IC50: 4.07 nM

More lines, now with the values ahead:

IC50: 2.51 nM
SMILES: Cc1n[nH]c(C(F)(F)F)c1-c1cc(C(C)C)c2cc(-c3nc(C(C)(C)O)n(C)n3)c(F)cn2c1=O [WO2022070071, Example 7]

IC50: 13 nM
SMILES: Cc1ccnc(Cl)c1-c1cc(C(C)C)c2cc(-c3cn(C)c(C(C)(C)O)n3)c(F)cn2c1=O [WO2022070071, Example 8]

IC50: 13 nM
SMILES: Cc1ccnc(Cl)c1-c1cc(C(C)C)c2cc(-c3nc(C(C)(C)O)n(C)n3)c(F)cn2c1=O [WO2022070071, Example 9]
